Series [1] in a line: Measurement of logP values by HPLC on reversed phase columns (EEC directive 79/831 Annex V.A8). The series is classed as physicochemical.
For series [2], the system named is Plasmopara viticola. The experiment in a line: Plasmopara test (grapevines)/protective. Format: in vivo. As to conditions: protective, 100 ppm of active ingredient, evaluated 6 days after inoculation. As for the experimental part: To test for protective activity, young plants are sprayed with the preparation of active compound at the stated rate of application. After the spray coating has dried on, the plants are inoculated with an aqueous spore suspension of Plasmopara viticola and then remain for 1 day in an incubation cabinet at approximately 20° C. and a relative atmospheric humidity of 100%. The plant is subsequently placed for 4 days in a greenhouse at approximately 21° C. and a relative atmospheric humidity of approximately 90%. The plants are then misted and placed for 1 day in an incubation cabinet.

In series [3] the test system is Phytophthora infestans. The series is classed as in vivo. As to conditions: tomato plants, preventive, 500 ppm of active ingredient, evaluated 7 days after inoculation.

Read-outs that look alike come from different tables or passages of the source.

In patent US20110021572A1, “FUNGICIDE HYDROXIMOYL-TETRAZOLE DERIVATIVES” (priority 2008, published 2011) one finds chromatographic logP and efficacy data, which are given here for three molecules.

Turning to `Cn1nnnc1C(=NOCc1ncccc1N)c1ccccc1` [Example 14, 2-[({[(1-methyl-1H-tetrazol-5-yl)(phenyl)methylene]amino}oxy)methyl]pyridin-3-amine], the chromatographic logP in series [1] (pH 2.7) is 1.01.
Still for that read-out and setting: the same measure for `Cn1nnnc1C(=NOCc1ncccc1N1C(=O)c2ccccc2C1=O)c1ccccc1` [Example 13, 2-{2-[({[(1-methyl-1H-tetrazol-5-yl)(phenyl)methylene]amino}oxy)methyl]pyridin-3-yl}-1H-isoindole-1,3(2H)-dione]: 2.63.
As to `CCCCCOC(=O)Nc1cccnc1CON=C(c1ccccc1)c1nnnn1C` [Example 2, pentyl {2-[({[(1-methyl-1H-tetrazol-5-yl)(phenyl)methylene]amino}oxy)methyl]pyridin-3-yl}carbamate], the efficacy in series [2] and in series [3] was ≥ 70% in each case. In series [1] (HPLC, pH 2.7, 0.1% formic acid, reported in preparation examples, read-out: logP(HCOOH)), the chromatographic logP came out at 3.53.
